Source: the METLIN SMRT retention time set (Domingo-Almenara et al. 2019)

test: gradient 5% acetonitrile 3 min, to 50% in 2 min, to 85% in 15 min, held 3 min, 100 µL/min; conditions: column: Zorbax Extend-C18 2.1 x 50 mm; eluents: water / acetonitrile, 0.1% formic acid
Outline: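 Pure standards were run in mixtures of ~100 molecules by HPLC coupled to a quadrupole time-of-flight mass spectrometer. The column was a Zorbax Extend-C18 (2.1 × 50 mm, 1.8 μm) at 100 μL/min, with water and acetonitrile each containing 0.1% formic acid, in positive and negative ionization mode. Dead and dwell volumes were 40 μL and 900 μL. Retention time was taken from computationally picked adduct peaks, each manually inspected, with data collected over 3 months.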

First: O=C(COc1ccccc1)Nc1cnc(-c2cccnc2)nc1
Second: O=C(Nc1cccc(OCc2nnc(-c3ccccc3)o2)c1)c1ccsc1
The RP-LC retention time of the first is lower: 678 s for the first, 914 s for the second.

Going from `CCN(CC)c1nc2cc(C(=O)NCC3CC3)ccc2c(=O)n1Cc1ccc(C)cc1` to `CCOC(=O)c1cn(Cc2ccc(F)cc2)c2nc(C)ccc2c1=O`, the RP-LC retention time falls from 1090 s to 854 s.

First: CCc1ccccc1NC(=O)C1CCN(S(=O)(=O)c2ccc3c(c2)CCCC(=O)N3)CC1
Second: CCn1c(=O)sc2cc(S(=O)(=O)N3CCC(C(=O)Nc4ccccc4F)CC3)ccc21
The RP-LC retention time of the first is lower: 757 s for the first, 899 s for the second.

First: COc1cccc(N2CCCn3c2nc2c3c(=O)n(CC(=O)O)c(=O)n2C)c1
Second: Cc1nn(-c2ccccc2)c2c1nc(CCC(=O)N1CCN(c3ccccn3)CC1)c(=O)n2C
The RP-LC retention time of the first is higher: 671 s for the first, 601 s for the second.

Going from `O=C(Nc1ccc(Cl)cc1)C1CCN(S(=O)(=O)c2ccc(-c3noc(C4CC4)n3)cc2)CC1` to `CC(C)OCCCNC(=O)C1CCN(S(=O)(=O)c2ccc(-c3noc(C4CC4)n3)cc2)CC1`, the RP-LC retention time falls from 1100 s to 890 s.

Compared with `CCN1CCCn2cc(S(=O)(=O)Nc3cccc(C)c3C)cc2C1=O`, `CSc1ccccc1NS(=O)(=O)c1cc2c(s1)CCN(C(=O)C1CC1)C2` is higher in RP-LC retention time: 768 s for the first, 851 s for the second.

First: CCOc1ccc(OCC)c(S(=O)(=O)N2CCN(c3nc(C)cc(N(C)C)n3)CC2)c1
Second: CCOc1ccc(Cc2nc(-c3ccc4c(c3)N(CC)C(=O)CO4)no2)cc1OCC
The RP-LC retention time of the first is lower: 733 s for the first, 1070 s for the second.

First: O=C(NCC1COc2ccccc2O1)C(=O)N1CCCCC1 (configuration not stated)
Second: O=C(Nc1ccc2c(c1)OCCO2)N1CCCC(c2nn[nH]n2)C1 (configuration not stated)
The RP-LC retention time of the first is higher: 757 s for the first, 634 s for the second.

Compared with `CCOC(=O)c1cnc(NC(=O)c2ccc(S(=O)(=O)N3CCCCC3)cc2)s1`, `CCOC(=O)c1ccc(NC(=O)c2ccc3c(c2)N(C)C2CCCCN2C3=O)cc1` (configuration not stated) is higher in RP-LC retention time: 882 s for the first, 896 s for the second.

Going from `O=C1CC(c2noc(-c3ccccc3F)n2)CN1c1ccc(Cl)cc1` (configuration not stated) to `Cc1ccc(N2CC(c3noc(-c4ccc5c(c4)OCO5)n3)CC2=O)cc1` (configuration not stated), the RP-LC retention time falls from 1010 s to 957 s.

Compared with `CCc1cc(C(=O)Nc2ccc(OC)cc2)nc2cc(-c3ccccn3)nn12`, `Cc1ccc(Oc2cccc(C(=O)Nc3ccc(-c4csc(C)n4)cc3)c2)nn1` is lower in RP-LC retention time: 1000 s for the first, 751 s for the second.

First: CC(=O)N1CCc2cc(N3CC(C(=O)Nc4ccc(C)cc4)CC3=O)ccc21 (configuration not stated)
Second: O=C(NCCS(=O)(=O)N1CCc2ccccc2C1)C1CC(=O)N(c2ccc(F)cc2)C1 (configuration not stated)
The RP-LC retention time of the first is lower: 720 s for the first, 732 s for the second.

Compared with `c1ccc(-c2nnc(Cc3ccc4c(c3)OCO4)o2)cc1`, `Cc1ccc(Cn2c(=O)c3sccc3n(Cc3nc(-c4ccccc4)no3)c2=O)cc1` is higher in RP-LC retention time: 894 s for the first, 1150 s for the second.

First: Cc1cc2c(N3CCCC(C(=O)NCc4ccccc4Br)C3)nccc2s1 (configuration not stated)
Second: Cc1ccc(Sc2nccnc2N2CCCC(C(=O)NCc3cc(F)cc(F)c3)C2)cc1 (configuration not stated)
The RP-LC retention time of the first is lower: 714 s for the first, 1120 s for the second.

Compared with `CSc1cccc(NC(=O)Cn2cnc3c(sc4nc(-c5ccccc5)ccc43)c2=O)c1`, `CC1(C)C(=O)N(CC(=O)Nc2cccc(F)c2)c2ccccc21` is lower in RP-LC retention time: 1040 s for the first, 886 s for the second.

First: Cc1ccc(NC(=O)Nc2ccc3nc(N4CCN(C)CC4)cc(C)c3c2)c([N+](=O)[O-])c1
Second: Cc1cnc(Nc2ccc(N3CCN(C)CC3)cc2)nc1Nc1cccc(S(=O)(=O)NC(C)(C)C)c1
The RP-LC retention time of the first is higher: 624 s for the first, 608 s for the second.

Going from `CCc1ccccc1NC(=O)N1CCCC(Cn2cnc3cccnc32)C1` (configuration not stated) to `COc1ccccc1N1CCN(c2cc(SCC(=O)Nc3ccccc3F)ncn2)CC1`, the RP-LC retention time rises from 719 s to 1100 s.

First: O=C(O)C1CCCN1C(=O)c1ccc(N2C(=O)C3C4C=CC(C4)C3C2=O)cc1 (configuration not stated)
Second: CNC(=O)N1CCCC(c2cccc(C(=O)N3CCN(c4cccc(Cl)c4)CC3)c2)C1 (configuration not stated)
The RP-LC retention time of the first is lower: 642 s for the first, 895 s for the second.

Going from `CC(=O)Nc1ccc(NC(=O)c2ccc3nc(-c4ccc(Cl)cc4)cn3c2)cc1` to `CSc1ccc(-c2nc3ccc(Br)cn3c2Nc2ccc(C)cc2)cc1`, the RP-LC retention time rises from 677 s to 986 s.

Compared with `Cc1ccc2[nH]cc(CCN3CC(C(=O)Nc4ccc5c(c4)CCC5)CC3=O)c2c1` (configuration not stated), `CSc1ccc(CCNC(=O)C2CCCN(C(=O)c3cc(C)cc(C)c3)C2)cc1` (configuration not stated) is higher in RP-LC retention time: 925 s for the first, 936 s for the second.

Going from `CCS(=O)(=O)N1CC(=O)N(c2cccc(Cl)c2)C(C)(C(=O)NC2CCCCCC2)C1` (configuration not stated) to `CCN(CC)C(=O)c1ccc2c(c1)N(CC(=O)NC1CCCCCCC1)C(=O)CS2`, the RP-LC retention time falls from 895 s to 879 s.

Compared with `CN(CCc1noc(COc2ccc(Cl)cc2)n1)C(=O)NCCc1ccccc1`, `O=S(=O)(c1ccc(-c2noc(COc3ccc(Cl)cc3)n2)cc1)N1CCOCC1` is higher in RP-LC retention time: 965 s for the first, 1090 s for the second.

Compared with `Cc1c(NC(=O)C2CCC2)c(=O)n(-c2ccccc2)n1C`, `O=C(Nc1ccc(F)c(F)c1)C1CCCN(S(=O)(=O)Cc2ccccc2)C1` (configuration not stated) is higher in RP-LC retention time: 596 s for the first, 998 s for the second.

Compared with `COc1cccc(S(=O)(=O)N2CCc3c(c(-c4nnc(-c5ccccc5F)o4)nn3C)C2)c1`, `CCSc1nnc(-c2nn(C)c3c2CN(S(=O)(=O)Cc2ccccc2F)CC3)n1CC` is lower in RP-LC retention time: 916 s for the first, 905 s for the second.

Compared with `C[C@@H](NCCCc1cccc(C(F)(F)F)c1)c1cccc2ccccc12`, `Cc1ccc(-c2nc3cc(C)ccn3c2Nc2ccccc2C)cc1` is lower in RP-LC retention time: 828 s for the first, 770 s for the second.

Going from `O=C(CSc1nc(=O)n2cc(Cl)ccc2n1)Nc1ccc(OC(F)(F)F)cc1` to `COc1ccc(OCC(=O)Nc2ccc3c(c2)N(C(=O)C(C)C)CCC3)cc1`, the RP-LC retention time rises from 820 s to 897 s.

Compared with `CC(C)Oc1ccc(CNC(=O)C2CCN(S(=O)(=O)c3ccc4c(c3)NC(=O)CO4)CC2)cc1`, `NC(=O)C1CCN(S(=O)(=O)c2ccc3[nH]cc(C(=O)O)c(=O)c3c2)CC1` is lower in RP-LC retention time: 821 s for the first, 596 s for the second.

Compared with `Cc1cc(C)cc(Nc2c(-c3cccc(O)c3)nc3cnccn23)c1`, `Cc1cccc(NC(=O)NC2CCN(c3cc(C)cc(C)c3)C2=O)c1` (configuration not stated) is higher in RP-LC retention time: 763 s for the first, 945 s for the second.

First: O=C(Nc1ccc(Cl)cc1)C1CCc2sc(C(=O)N3CCOCC3)cc2C1 (configuration not stated)
Second: Cc1cc(=O)n(CC(=O)Nc2ccc(F)c(F)c2)c(N2CCOCC2)n1
The RP-LC retention time of the first is higher: 759 s for the first, 687 s for the second.

Compared with `O=C1CCCCC1Oc1cc(O)c2c(=O)cc(-c3ccccc3)oc2c1` (configuration not stated), `COc1ccccc1C(CNC(=O)c1cc(=O)c2cc(Cl)ccc2o1)N(C)C` (configuration not stated) is lower in RP-LC retention time: 1090 s for the first, 647 s for the second.

First: CC1=C(c2ccc(C)cc2)S(=O)(=O)N=C1N1CCCN(C(=O)NC2CCCC2)CC1
Second: CC1CCN(S(=O)(=O)c2ccc(-c3nnc(C(=O)NC4CCCC4)o3)cc2)CC1
The RP-LC retention time of the first is lower: 857 s for the first, 1030 s for the second.

First: O=C(NCCc1c[nH]c2ccc(Cl)cc12)c1sc2ncccc2c1-n1cccc1
Second: CCc1nc(-c2ccc(-c3noc(CNC(=O)Cc4ccc(Cl)cc4)n3)cc2)cs1
The RP-LC retention time of the first is lower: 1060 s for the first, 1080 s for the second.

Compared with `CCC1CN2C=NC(N3CCN(C(=O)Nc4cc(C)ccc4OC)CC3)=CC2=N1` (configuration not stated), `O=C(C1CCN(c2ccc(Sc3ccc(Cl)cc3)nn2)CC1)N1CCN(c2ccccn2)CC1` is lower in RP-LC retention time: 658 s for the first, 644 s for the second.

Compared with `Cc1cc(C)c2c(N3CCCC3)nc(C(=O)Nc3ccc4c(c3)OCCO4)nc2n1`, `Nc1nc(N2CCCC2)ncc1C(=O)NCc1ccccc1F` is higher in RP-LC retention time: 583 s for the first, 643 s for the second.

Going from `Cn1cccc1C(=O)C(=O)NCCc1ccc(Cl)cc1` to `COc1ccc(CCNC(=O)NCC2CCN(Cc3ccsc3)CC2)cc1`, the RP-LC retention time falls from 939 s to 565 s.

Compared with `O=C(c1ccc(Br)cc1)N1CCN=C1N1CCN(c2ccccc2F)CC1`, `COC(=O)C1=CN(C2CC2)c2cc(N3CCN(c4ccc(OC)cc4)CC3)c(F)cc2S1(=O)=O` is higher in RP-LC retention time: 632 s for the first, 856 s for the second.

First: CCC(C)N(CC(=O)N(Cc1ccco1)CC1CCCO1)C(=O)c1ccccc1OC (configuration not stated)
Second: CCOC(=O)c1ccc(NC(=O)c2cc3sc(Cl)cc3n2CC)cc1
The RP-LC retention time of the first is lower: 805 s for the first, 1260 s for the second.

First: CC(C)n1c(CN2CCOCC2)nc2ccccc21
Second: Cn1cc(S(=O)(=O)N2CCOCC2)cc1C(=O)N1CCN(c2ccccn2)CC1
The RP-LC retention time of the first is lower: 556 s for the first, 574 s for the second.

Compared with `COc1ccc(-c2noc(Cn3cnc4c(cnn4-c4ccc(OC)cc4)c3=O)n2)cc1`, `CCc1nnc(-c2ccc3ccn(CC(=O)Nc4cc(OC)c(OC)c(OC)c4)c3c2)o1` is lower in RP-LC retention time: 982 s for the first, 777 s for the second.

Compared with `Cc1cccc(CNC(=O)c2cc(N(C)C)n3nccc3n2)c1`, `CCc1ccc(-c2csc(NC(=O)c3cccnc3)n2)cc1` is higher in RP-LC retention time: 840 s for the first, 924 s for the second.

Going from `Cc1c(CN2CCSCC2)nnn1-c1ccc(F)cc1` to `O=C(Cc1cccs1)N1CCN(Cc2nc(-c3ccc(Cl)cc3)cs2)CC1`, the RP-LC retention time rises from 610 s to 754 s.

First: Cn1c(=O)n(C)c2cc(CNCC(O)c3ccccc3)ccc21 (configuration not stated)
Second: CC1CCN(S(=O)(=O)c2ccc3nn(CCc4ccccc4)c(=O)n3c2)CC1
The RP-LC retention time of the first is lower: 569 s for the first, 1020 s for the second.

Compared with `CSc1ccccc1NC(=O)C(=O)NCC(c1ccc2c(c1)CCCN2C)N1CCCC1` (configuration not stated), `O=C(Cn1nc2c(Oc3ccc(Cl)cc3)nccn2c1=O)NC1CCCCC1` is higher in RP-LC retention time: 784 s for the first, 881 s for the second.

`Cc1cc(C(=O)NC2CC2)nn1C` gave an RP-LC retention time of 600 s.
